US20080044498A1, “Therapeutic or prophylactic agent, and method of treating or preventing a disease” (priority 2002, published 2008)
“Also recorded” adds a separate entry of the source.

Experiments:
Format in all cases: cell-based
glucose transporter = assay: Inhibition by cytochalasin B of 2-deoxyglucose uptake into matured adipocytes; conditions: FIG. 13
Protocol: The influence of cytochalasin B on 2-deoxyglucose uptake into matured adipocytes during the stimulation of the sample into the cells was tested in the same manner as in the method described in Example 5 on whether the enhancing action for glucose uptake of the ethanol extract fraction from root portions of Angelica keiskei koidz. shown in Example 16 is inhibited by cytochalasin B, which is an inhibitor of glucose transporter.
Specifically, as a sample, a group with addition of a dimethyl sulfoxide solution of the ethanol extract fraction from root portions of Angelica keiskei koidz. so as to have a final concentration of 0.1% was set. Here, there were set a group without addition of the sample as a negative control, and a group with addition of insulin so as to have a final concentration of 1 μg/mL as a positive control. Furthermore, a group with addition of cytochalasin B (manufactured by nacalai tesque, 10435-81) so as to have a final concentration of 40 μM was set concurrently to the timing of the setting of the group with addition of insulin in each group. Thereafter, the amount of 2-deoxy-[1,2-^3H(N)]-glucose uptake into the cells was determined in the same manner.

[1] = tested on: Preadipocyte cell line 3T3-L1; assay: Induction of adipocyte differentiation, amount of biosynthesized triglyceride; conditions: positive control, 4 μl of aqueous solution containing 5 mg/mL insulin
Protocol: The induction of an adipocyte differentiation was carried out by partially modifying the above-mentioned method of Rubin C. S. et al. Preadipocyte cell line 3T3-L1 (ATCC CCL-92.1) was suspended in a 10% bovine fetal serum (manufactured by GIBCO)-containing Dulbecco's modified Eagle's medium (manufactured by Sigma, D6046) containing 200 μM ascorbic acid (hereinafter referred to as A-D-MEM) so as to have a concentration of 4×10^3 cells/mL, and the suspension was put in each well of a 12-well microtiter plate in an amount of 2 mL per well. The cells were cultured at 37° C. for 7 days in the presence of 5% carbon dioxide gas. The medium was exchanged with the same medium on the second day and the fourth day. […] Here, there were set a group with addition of 4 μl of an aqueous solution containing 5 mg/mL insulin (manufactured by TAKARA BIO INC.) as a positive control, and a group with addition of water as a negative control. […] The amount of biosynthesized triglyceride in the adipocytes was determined as an index of induction of differentiation into matured adipocytes, and as evaluation of insulin-mimetic action. […] The precipitate was dissolved in 100 μl of isopropanol, and thereafter the amount of triglyceride contained in 10 μl of the resulting solution was determined with Triglyceride G-Test (manufactured by Wako Pure Chemical Industries, Ltd., code 276-69801). […]

[2] = tested on: matured adipocytes (3T3-L1 cells); assay: Enhancing action for glucose uptake (2-deoxyglucose uptake) into matured adipocytes; conditions: positive control, insulin final concentration 1 μg/mL
[3] = tested on: matured adipocytes (3T3-L1 cells); assay: Synergistic enhancing action of glucose uptake with low concentration-insulin in matured adipocytes; conditions: insulin alone, final concentration 0.001 μg/mL; FIG. 14
Protocol: As evaluation of the synergistic enhancing action of glucose uptake by the ethanol extract fraction from root portions of Angelica keiskei koidz. prepared in Example 14 and a low concentration-insulin, the amount of 2-deoxyglucose uptake into matured adipocytes during the stimulation of the sample in the adipocytes was determined partly in the same manner as in the method described in Example 5.
The matured adipocytes were prepared in the same manner as in the method described in item (1) of Example 5.
After the termination of the culture, the medium was removed, and the cells were washed twice with 0.1% (w/v) bovine serum albumin (manufactured by Sigma, A8022)-containing Dulbecco's modified Eagle's medium. Thereafter, 1 mL of the same medium containing a dimethyl sulfoxide solution of the ethanol extract fraction from root portions of Angelica keiskei koidz. having a final concentration of 0.02% was added thereto. The cells were cultured overnight at 37° C. in the presence of 5% carbon dioxide gas. A group without containing the ethanol extract fraction from root portions of Angelica keiskei koidz. was set as a negative control. […] Thereafter, the amount of 2-deoxy-[1,2-^3H(N)]-glucose uptake into the cells was determined in the same manner as in the method described in item (2) of Example 5.

[4] = tested on: matured adipocytes (3T3-L1 cells); assay: Glucose uptake by insulin stimulation into adipocytes induced to be differentiated by the sample; conditions: adipocytes differentiated by insulin (4 μl of 5 mg/mL); insulin stimulation 1 μg/mL; FIG. 15
Description: Adipocytes which were induced to be differentiated by the ethanol extract fraction from Angelica keiskei koidz. prepared in Example 14 were obtained, and thereafter it was confirmed whether the glucose uptake into the cells was enhanced by insulin stimulation.
Specifically, as a sample, there was set a group with addition of a dimethyl sulfoxide solution of the ethanol extract fraction from root portions of Angelica keiskei koidz. to have a final concentration of 0.05%. A group with addition of 4 μl of an aqueous solution containing 5 mg/mL insulin (manufactured by TAKARA BIO INC.) was set as a positive control. […]
Next, the amount of 2-deoxyglucose uptake into the resulting matured adipocytes during the insulin stimulation in the adipocytes was determined in the same manner as in the method described in Example 5.
Specifically, a group without addition of insulin or a group with addition of insulin so as to have a final concentration of 1 μg/mL was set in each of the matured adipocytes. Thereafter, the amount of 2-deoxy-[1,2-^3H(N)]-glucose uptake into the cells was determined in the same manner.

Molecule	inhibition of 2-deoxy-[1,2-3H(N)]-glucose uptake (glucose transporter; cytochalasin B final concentration 40 μM added concurrently with each group)	induction of triglyceride biosynthesis (adipocyte differentiation) [1]	enhancement of 2-deoxy[1,2-3H(N)]-glucose uptake [2]	2-deoxy-[1,2-3H(N)]-glucose uptake with concurrent cytochalasin B (glucose transporter; insulin 1 μg/mL plus cytochalasin B 40 μM)	enhancement of 2-deoxy-[1,2-3H(N)]-glucose uptake [3]	enhancement of 2-deoxy[1,2-3H(N)]-glucose uptake by insulin stimulation [4]
C=C1[C@@H](C)[C@H]2[C@H](Cc3ccccc3)NC(=O)[C@]23OC(=O)/C=C/[C@H](O)CCC[C@@H](C)C/C=C/[C@H]3[C@@H]1O [cytochalasin B]	almost completely inhibited	–	–	–	–	–
insulin	–	induction of triglyceride biosynthesis could be confirmed	enhancement of 2-deoxy[1,2-^3H(N)]-glucose uptake was found; also recorded: enhancement of 2-deoxy-[1,2-^3H(N)]-glucose uptake was found	almost completely inhibited	enhancement of 2-deoxy-[1,2-^3H(N)]-glucose uptake was found	enhancement of 2-deoxy[1,2-^3H(N)]-glucose uptake was found by insulin stimulation
